Data: US20130267494A1, “1,4-OXAZEPANE DERIVATIVES” (priority 2010, published 2013)
Structures can show the parent of a compound that is named as a salt.

Columns and labels:
Format in all cases: cell-based
[1] = target: T1, human serotonin transporter (Homo sapiens, UniProt P31645); assay: Inhibitory action on human serotonin transporter ([3H]-5-hydroxytryptamine uptake in CHO cells); conditions: compound 1 μM, relative to inhibitory activity of 10 μM Paroxetine as 100%; for inhibition at 1 µM: CHO, read-out: inhibitory rate (%)
T1 construct: expressed in transfected cells
Procedure, shortened: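 CHO-K1 cells stably expressing human SERT, plated overnight, took up [3H]-5-HT (diluted to 200 nM before a 1:10 addition) for 20 min in HEPES-buffered saline with glucose and 0.5% BSA; radioactivity counted by scintillation. Compounds at 10 μM or 1 μM, activity expressed relative to 10 μM paroxetine set as 100%.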

[2] = target: T2, human norepinephrine transporter (Homo sapiens, UniProt P23975); assay: Inhibitory action on human norepinephrine transporter ([3H]-norepinephrine uptake in CHO cells); conditions: compound 1 μM, relative to inhibitory activity of 10 μM DMI as 100%; for inhibition at 1 µM: CHO, read-out: inhibitory rate (%)
T2 construct: expressed in transfected cells
Procedure, shortened: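 Stably transfected CHO-K1 cells plated overnight, then given test compound and [3H]-norepinephrine (20 nM final, from 200 nM) in HEPES-buffered saline with 0.5% BSA for 45 min. After PBS washes, retained radioactivity counted by scintillation. Inhibition at 10 μM or 1 μM compound expressed relative to 10 μM DMI as 100%.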

[3] = target: T3, human dopamine transporter (Homo sapiens, UniProt Q01959); assay: Inhibitory action on human dopamine transporter ([3H]-dopamine uptake in CHO cells); conditions: compound 1 μM, relative to inhibitory activity of 100 μM Nomifensine as 100%; for inhibition at 1 µM: CHO, read-out: inhibitory rate (%)
T3 construct: expressed in transfected cells
Procedure, shortened: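 CHO-K1 cells stably expressing human dopamine transporter, exposed to compound at 10 μM or 1 μM in HEPES-buffered saline with 0.5% BSA. [3H]-dopamine uptake measured over 60 min by scintillation counting. Activity expressed relative to 100 μM nomifensine as 100%.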

T2 sequence (P23975 whole entry): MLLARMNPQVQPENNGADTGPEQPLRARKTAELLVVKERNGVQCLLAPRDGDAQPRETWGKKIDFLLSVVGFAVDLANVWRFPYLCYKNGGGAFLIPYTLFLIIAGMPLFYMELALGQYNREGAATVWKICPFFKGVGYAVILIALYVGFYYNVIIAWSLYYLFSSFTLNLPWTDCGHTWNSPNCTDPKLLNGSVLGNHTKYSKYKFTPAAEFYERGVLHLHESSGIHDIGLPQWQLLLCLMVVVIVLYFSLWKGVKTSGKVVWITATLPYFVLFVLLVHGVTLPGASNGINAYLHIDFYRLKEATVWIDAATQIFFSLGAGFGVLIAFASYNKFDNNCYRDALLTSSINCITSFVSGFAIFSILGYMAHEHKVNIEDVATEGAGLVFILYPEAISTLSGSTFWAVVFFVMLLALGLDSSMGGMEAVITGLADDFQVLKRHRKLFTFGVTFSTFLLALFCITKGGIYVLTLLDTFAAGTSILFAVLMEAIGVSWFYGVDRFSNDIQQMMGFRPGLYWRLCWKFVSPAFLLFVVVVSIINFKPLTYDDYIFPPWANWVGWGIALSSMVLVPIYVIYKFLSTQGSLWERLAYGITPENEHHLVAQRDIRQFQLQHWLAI
T3 sequence (Q01959 whole entry): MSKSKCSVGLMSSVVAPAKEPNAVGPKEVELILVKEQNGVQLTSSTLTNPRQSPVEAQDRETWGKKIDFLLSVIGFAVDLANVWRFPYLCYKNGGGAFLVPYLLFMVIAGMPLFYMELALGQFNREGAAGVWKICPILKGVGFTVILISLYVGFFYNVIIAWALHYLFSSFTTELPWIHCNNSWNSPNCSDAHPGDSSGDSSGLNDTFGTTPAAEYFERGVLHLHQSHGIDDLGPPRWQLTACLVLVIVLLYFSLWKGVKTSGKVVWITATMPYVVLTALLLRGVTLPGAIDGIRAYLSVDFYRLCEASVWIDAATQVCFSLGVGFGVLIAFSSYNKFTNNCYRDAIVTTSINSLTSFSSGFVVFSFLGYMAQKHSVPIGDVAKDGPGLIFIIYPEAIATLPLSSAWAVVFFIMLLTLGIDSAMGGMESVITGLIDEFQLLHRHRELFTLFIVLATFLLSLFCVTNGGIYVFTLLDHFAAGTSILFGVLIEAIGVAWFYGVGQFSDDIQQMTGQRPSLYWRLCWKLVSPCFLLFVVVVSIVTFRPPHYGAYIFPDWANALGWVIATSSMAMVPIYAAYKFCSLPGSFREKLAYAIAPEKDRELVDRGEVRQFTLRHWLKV
T1 sequence (P31645 whole entry): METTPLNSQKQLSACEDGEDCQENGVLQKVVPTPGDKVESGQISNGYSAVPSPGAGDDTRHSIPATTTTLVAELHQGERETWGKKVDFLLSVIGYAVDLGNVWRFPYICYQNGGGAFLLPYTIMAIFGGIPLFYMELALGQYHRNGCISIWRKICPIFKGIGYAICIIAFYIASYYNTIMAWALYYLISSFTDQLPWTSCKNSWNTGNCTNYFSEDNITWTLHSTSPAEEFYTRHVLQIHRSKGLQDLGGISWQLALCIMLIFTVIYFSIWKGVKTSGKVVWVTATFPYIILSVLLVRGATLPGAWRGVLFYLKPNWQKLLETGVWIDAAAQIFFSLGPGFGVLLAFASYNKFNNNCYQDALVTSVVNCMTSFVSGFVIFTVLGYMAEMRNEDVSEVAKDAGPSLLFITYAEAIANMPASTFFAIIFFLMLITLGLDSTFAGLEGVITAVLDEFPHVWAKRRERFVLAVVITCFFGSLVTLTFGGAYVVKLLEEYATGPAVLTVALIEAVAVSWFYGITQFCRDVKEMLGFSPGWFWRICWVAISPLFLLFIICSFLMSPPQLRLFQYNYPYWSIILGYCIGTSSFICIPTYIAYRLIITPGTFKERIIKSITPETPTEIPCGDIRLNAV

| SMILES | inhibition at 1 µM [1] [%] | inhibition at 1 µM [2] [%] | inhibition at 1 µM [3] [%] | inhibitory rate (%) [1] [%] | inhibitory rate (%) [2] [%] | inhibitory rate (%) [3] [%] |
| --- | --- | --- | --- | --- | --- | --- |
| O=c1[nH]c(-c2ccc(OC[C@@H]3CNCCO[C@H]3c3ccc(Cl)c(Cl)c3)nc2)no1 [Example 87, 3-(6-{[(6S,7R)-7-(3,4-dichlorophenyl)-1,4-oxazepan-6-yl]methoxy}pyridin-3-yl)-1,2,4-oxadiazol-5(4H)-one monohydrochloride] | 96 | 108 | 20 | – | – | – |
| COC[C@@H]1OCCNC[C@@H]1c1ccc(Cl)c(Cl)c1 (racemic) [Example 449, (6RS,7SR)-6-(3,4-dichlorophenyl)-7-(methoxymethyl)-1,4-oxazepane monohydrochloride] | 53 | 100 | 58 | – | – | – |
| O=C1CNC(=O)N1C[C@]1(c2ccc(Cl)c(Cl)c2)CCNCCO1 [Example 438, 3-{[(7R)-7-(3,4-dichlorophenyl)-1,4-oxazepan-7-yl]methyl}imidazolidine-2,4-dione monohydrochloride] | 81 | 97 | 6 | – | – | – |
| O=C1CN([C@@H]2CNCCO[C@H]2c2ccc(Cl)c(Cl)c2)C(=O)N1 [Example 276, 1-[(6R,7S)-7-(3,4-dichlorophenyl)-1,4-oxazepan-6-yl]imidazolidine-2,4-dione monohydrochloride] | 87 | 103 | 94 | – | – | – |
| Cc1nnc(-c2cccnc2O[C@@H]2CNCCO[C@H]2c2ccc(Cl)c(F)c2)[nH]1 [Example 568, (6R,7S)-7-(4-chloro-3-fluorophenyl)-6-{[3-(5-methyl-4H-1,2,4-triazol-3-yl)pyridin-2-yl]oxy}-1,4-oxazepane monohydrochloride] | 94 | 103 | 100 | – | – | – |
| O=c1[nH]c(-c2csc(C[C@@H]3CNCCO[C@H]3c3ccc(Cl)c(Cl)c3)n2)no1 [Example 199, 3-(2-{[(6R,7R)-7-(3,4-dichlorophenyl)-1,4-oxazepan-6-yl]methyl}-1,3-thiazol-4-yl)-1,2,4-oxadiazol-5(4H)-one monohydrochloride] | 100 | 99 | 66 | – | – | – |

Next, values leading:

| inhibition at 1 µM [1] [%] | inhibition at 1 µM [2] [%] | inhibition at 1 µM [3] [%] | inhibitory rate (%) [1] [%] | inhibitory rate (%) [2] [%] | inhibitory rate (%) [3] [%] | SMILES |
| --- | --- | --- | --- | --- | --- | --- |
| 49 | 104 | 11 | – | – | – | O=C(CC(F)(F)F)NC[C@@H]1CNCCO[C@H]1c1ccc(Cl)c(F)c1 [Example 314, N-{[(6S,7R)-7-(4-chloro-3-fluorophenyl)-1,4-oxazepan-6-yl]methyl}-3,3,3-trifluoropropanamide monohydrochloride] |
| 95 | 103 | 62 | – | – | – | CS(=O)(=O)CC1(O)CNCCOC1c1ccc(Cl)c(F)c1 (stereo not drawn) [Example 572, 7-(4-chloro-3-fluoro-phenyl)-6-[(methyl-sulfonyl)-methyl]-1,4-oxazepan-ol] |
| 15 | 70 | 14 | – | – | – | OC[C@H]1OCCNC[C@@H]1c1ccc(Cl)c(Cl)c1 [Example 487, [(6S,7S)-6-(3,4-dichlorophenyl)-1,4-oxazepan-7-yl]methanol monohydrochloride] |
| 61 | 102 | 37 | – | – | – | OC[C@@H]1OCCNC[C@H]1c1ccc(Cl)c(Cl)c1 [Example 488, [(6R,7R)-6-(3,4-dichlorophenyl)-1,4-oxazepan-7-yl]methanol monohydrochloride] |
| 84 | 96 | 75 | – | – | – | CS(=O)(=O)NC[C@@H]1CNCCO[C@H]1c1ccc(Cl)c(Cl)c1 [Example 34, N-{[(6S,7R)-7-(3,4-dichlorophenyl)-1,4-oxazepan-6-yl]methyl}methanesulfonamide monohydrochloride] |
| – | – | – | 82 | 98 | 22 | Cc1ccc(C2OCCNCC2CO)cc1Cl (stereo not drawn) [Example 406, [(6R*,7S*)-7-(3-chloro-4-methylphenyl)-1,4-oxazepan-6-yl]methanol monohydrochloride (retention time long)] |
